Measured values as given in patent publication US20120202258A1, “LIGE-TYPE TRANSFORMANTS FOR BIOCONVERSION OF LIGNIN-DERIVED COMPOUNDS” (priority 2010, published 2012).

What was measured:
Escherichia coli = details: result in words, cited from earlier work; for antimicrobial activity against Escherichia coli: known; for antibacterial activity against Escherichia coli: demonstrated
Saccharomyces cerevisiae = details: result in words; cited from earlier work
[1] = FIG. 2B, S. paucimobilis LigDFEG gene cluster; result in words; cited from earlier work
[2] = in vitro beta-etherase biochemical assay on fluorescent substrate MUAV (4MU fluorescence), clarified E. coli cell extracts; details: for beta-etherase activity: MUAV substrate, result in words
Source text: The model substrate synthesis 150 for use in the biochemical screening for selective activity can be outsourced through a contract research organization (CRO). The enzyme discovery effort can initially be focused on identifying potential beta-etherase candidate genes identified through bioinformatic methods. […] The fluorescent substrate α-O-(β-methylumbelliferyl) acetovanillone (MUAV), for example, can be used in in vitro assays to identify beta-etherase function (Acme Biosciences, Mt. View, Calif.). The formation of 4 methylumbelliferone (4MU) upon hydrolysis of the aryl ether bond can be monitored by fluorescence, for example, at λex=365 nm and λem=450 nm (or 460 nm).
The enzyme screening 155 is done to identify novel etherases 160. […] Expression of the beta-etherase genes can be done in 5 ml or 25 ml samples of the recombinant E. coli strains in LB medium using induction with IPTG. Following induction, and cell harvest, cell pellets can be be lysed using the BPER (Invitrogen) cell lysis system. […] The formation of 4 methylumbelliferone (4MU) upon hydrolysis of the aryl ether bond in MUAV can be monitored by fluorescence at λex=365 nm and λem=460 nm, and can provide quantitative measurement of beta-etherase function. Cell extracts of E. coli transformed with the S. paucimobilis ligE and ligF genes can be the assay positive controls. Test or unknown samples can include, for example, E. coli strains expressing putative beta-etherase genes from N. aromaticovorans.
This example describes a method for gene expression in E. coli, as well as beta-etherase biochemical assays. Expression of known and putative beta-etherase genes was performed using 5 ml cultures of the recombinant E. coli strains described herein in Luria Broth medium by induction of gene expression using isopropylthiogalactoside (IPTG) to a final concentration of 0.1 mM. Following induction, and cell harvest, the cells were disrupted using either sonication or the BPER (Invitrogen) cell lysis system.
In vitro reactions were performed in a total volume of 200 ul and contained: 25 mM TrisHCl pH 7.5; 0.5 mM dithiothreitol; 1 mM glutathione; 0.05 mM or 0.1 mM MUAV; 10 ul of clarified cell extract used to initiate the reactions. Following incubation for 2.5 hours at room temperature, a 50 ul sample of the reactions was terminated using 150 uL of 300 mM glycine/NaOH buffer pH 9. The formation of 4 methylumbelliferone (4MU) upon hydrolysis of the aryl ether bond was monitored by the increase in fluorescence at λex=360 nm and λem=450 nm using a Spectramax UV/visible/fluorescent spectrophotometer.
The total protein concentrations of the cell lysates were determined using the BCA reagent system for protein quantification (Pierce).

With `COc1cc(C=O)cc(OC)c1O` [syringaldehyde] as the molecule, how does the “antimicrobial activity against Escherichia coli” value (Escherichia coli) read?
The value was “antimicrobial activity”.

For `COc1cc(CCC(C)=O)ccc1O` [vanillylacetone], which “antifungal activities against the yeast Saccharomyces cerevisiae” value (from here on “antifungal activities”) (Saccharomyces cerevisiae) is on record?
Its value is “significant antifungal activities”.

Which “enzyme activity of gene product” value [1] does the source give for “LigD: S. paucimobilis C alpha-dehydrogenase gene product [reference compound]” here?
Its value is “Cα-dehydrogenase activity”.

With `O=Cc1ccc(O)cc1` [4-hydroxybenzaldehyde] as the molecule, how does the “antimicrobial activity against Escherichia coli” value (Escherichia coli) read?
The value was “antimicrobial activity”.

For `O=C(O)/C=C/c1cccc(O)c1` [m-coumaric acid], which “antifungal activities” value (Saccharomyces cerevisiae) is on record?
Its value is “significant antifungal activities”.

With `COc1ccc(O)c(C=O)c1` [2-hydroxy-5-methoxybenzaldehyde] as the molecule, how does the “antibacterial activity against Escherichia coli” value (Escherichia coli) read?
The value was “antibacterial activity”.

Which “antibacterial activity against Escherichia coli” value (Escherichia coli) does the source give for `O=Cc1cccc(O)c1O` [2,3-dihydroxybenzaldehyde] here?
The value was “antibacterial activity”.

With `COc1cc(O)cc(OC)c1C=O` [4-hydroxy-2,6-dimethoxybenzaldehyde] as the molecule, how does the “antibacterial activity against Escherichia coli” value (Escherichia coli) read?
Its value is “antibacterial activity”.

For `O=Cc1cc(O)ccc1O` [2,5-dihydroxybenzaldehyde], which “antibacterial activity against Escherichia coli” value (Escherichia coli) is on record?
The value was “antibacterial activity”.

With `O=Cc1ccc(O)cc1O` [2,4-dihydroxybenzaldehyde] as the molecule, how does the “antibacterial activity against Escherichia coli” value (Escherichia coli) read?
The value was “antibacterial activity”.

Which “antifungal activities” value (Saccharomyces cerevisiae) does the source give for `COc1cc(C(=O)O)ccc1O` [vanillic acid] here?
Its value is “significant antifungal activities”.

For `O=Cc1ccc(CO)o1` [5-hydroxymethylfurfural], which “antimicrobial activity against Escherichia coli” value (Escherichia coli) is on record?
The value was “antimicrobial activity”.

With `COc1cc(C=O)ccc1O` [vanillin] as the molecule, how does the “antimicrobial activity against Escherichia coli” value (Escherichia coli) read?
Its value is “antimicrobial activity”.

Which “antibacterial activity against Escherichia coli” value (Escherichia coli) does the source give for `COc1cccc(C=O)c1O` [2-hydroxy-3-methoxybenzaldehyde] here?
The value was “antibacterial activity”.

Which “antibacterial activity against Escherichia coli” value (Escherichia coli) does the source give for `O=Cc1ccc(O)c(O)c1O` [2,3,4-trihydroxybenzaldehyde] here?
Its value is “antibacterial activity”.

Which “antifungal activities” value (Saccharomyces cerevisiae) does the source give for `O=C(O)/C=C/c1ccc(O)cc1` [p-coumaric acid] here?
The value was “significant antifungal activities”.

For `O=C(O)/C=C/c1ccccc1O` [o-coumaric acid], which “antifungal activities” value (Saccharomyces cerevisiae) is on record?
Its value is “significant antifungal activities”.

Which “antifungal activities” value (Saccharomyces cerevisiae) does the source give for `COc1ccc(C=O)cc1OC` [Veratraldehyde] here?
Its value is “significant antifungal activities”.

Which “antibacterial activity against Escherichia coli” value (Escherichia coli) does the source give for `O=Cc1c(O)cc(O)cc1O` [2,4,6-trihydroxybenzaldehyde] here?
The value was “antibacterial activity”.

With `O=Cc1ccco1` [furfural] as the molecule, how does the “antimicrobial activity against Escherichia coli” value (Escherichia coli) read?
Its value is “antimicrobial activity”.

Which “antifungal activities” value (Saccharomyces cerevisiae) does the source give for `O=C(O)C=Cc1ccccc1` [cinnamic acid] here?
The value was “significant antifungal activities”.

For `O=Cc1ccccc1O` [2-hydroxybenzaldehyde], which “antibacterial activity against Escherichia coli” value (Escherichia coli) is on record?
Its value is “antibacterial activity”.

B1: ligE1: N. aromaticivorans putative beta-etherase polypeptide, glutathione S-transferase-like protein, expressed in E. coli (protein)
chain: MAANNTITFYDLALSTGATISPFVWATKYALKHKGFDLDVVPGGFTGILERTGGKTERLPAIVDDGEFVLDSWGIVEYLDAKYPDRPVLIPHESVAATLKALDNWFWNAAVGPWMFCFCQDYRDLSLPQDHEYVTHSREKMLGRKLEEVQAGREERLPKISAALEPLRAALAQHQWLGGSSPNYADYRIMGGILFTASVCKTPVLANDDPLRDWIERCLDLYGGLGRHPGLFPLFGLEQREGDPDLFNRAAGQGGIYKRNTGPESTRAETQRITEGMKK
For B1, which “fold more efficient than S. paucimobilis ligE beta-etherase enzyme” value ([2]; 0.1 mM MUAV substrate) is on record?
Its value is “approximately 75 fold”.

What about the beta-etherase activity [2] of the same molecule?
The beta-etherase activity was “beta-etherase activity”.

B2: ABD26530.1: N. aromaticivorans putative beta-etherase polypeptide (protein)
chain: MVIPLGEDNTIMLKLYSFGPAANSMKPLLTVFEKGLDVEKHRLDPAKFEHHTDWFKAINPRGQVPALVDGDKVVTESTVICEYLEDEYPTEVALRPADSFGKAQMRIWTKWVDEYFCWCVSTIGWHRYVGNMVKSLSDAEFEEKVKAIPVIEQQVKWRRAREGFPQDMLDEEMRKIAYSVRKLDDHLADHEWLVPGQYTLADICNFAIANGMQFGFAELVNKQDTPHLVRWIEQINERPAVKQMFAQVELEKLGPRE
Which beta-etherase activity [2] does the source give for B2 here?
Its beta-etherase activity is “beta-etherase activity”.

B3: LigF2: N. aromaticivorans putative beta-etherase polypeptide, glutathione S-transferase-like protein (protein)
chain: MALKYYHAEPLANSLKSMVPLKEKGLAYESIYVDLHKFEQHQPWFTAINPEGQVPVLDHDGTIITHTTVINEYLEDAFPDAQPADAPLRPRDPVGAARMRYWNKFIDEHVMNYVSMHGWHRMVGVIARNIASGDFEKLLESIPLPDQRKKWATARSGFSEADLANATAKIEYALDKVEKQLGETKWLAGDTYTLADINFYSHCGAMVERMFPEMEVARRAPRLCEWRDRVAARPAVAEALKSEDRTAPGLRVWSGEVR
Which beta-etherase activity [2] does the source give for B3 here?
The beta-etherase activity was “beta-etherase activity”.

B4: ABD27309.1: N. aromaticivorans putative beta-etherase polypeptide (protein)
chain: MDEVSLYHWEPNANSGKPMLALMEKGVPFSSHYIDMLQFDQHKPEYLAINPQGTIPAMTHNGQVLTESTAIMEYVNDRFDGPDLMPADAQDRWRVRWWMKFMDQWLGPSFSMIGWSVFVGPMVRQRDPAELAAAIDRIPLPERRTAWRKAINGDFSESEMAESRRRVGLGIAKLEEELGKRPYVGSNQYSLADINIFNSTYSLPISQPDLAGKDRTPNIMRWLKRVYTREAVKKTWAMGKTDLAHRYGLIMAEIEG
Which beta-etherase activity [2] does the source give for B4 here?
Its beta-etherase activity is “beta-etherase activity”.

B5: LigF: S. paucimobilis beta-etherase, positive control polypeptide (protein)
chain: MTLKLYSFGPGANSLKPLATLYEKGLEFEQVFVDPSKFEQHSDWFKKINPRGQVPALWHDGKVVTESTVICEYLEDVFPESGNSLRPADPFKRAEMRVWTKWVDEYFCWCVSTIGWAFGIKAIAQKMSDEEFEEHINKNVPIPEQQLKWRRARNGFPQEMLDEEFRKVGVSVARLEETLSKQDYLVDTGYSLADICNFAIANGLQRPGGFFGDYVNQEKTPGLCAWLDRINARPAIKEMFEKSKREDLLKRQNEKVA
Which “enzyme activity of gene product” value [1] does the source give for B5 here?
The value was “β-etherase activity”.

B6: ligE: S. paucimobilis beta-etherase, positive control polypeptide (protein)
chain: MARNNTITLYDLQLESGCTISPYVWRTKYALKHKGFDIDIVPGGFTGILERTGGRSERVPVIVDDGEWVLDSWVIAEYLDEKYPDRPMLFEGPTQKNLMKFLDNWLWSTAVGPWFRCYILDYHDLSLPQDRDYVRWSREQWFLGGQRLEDVQAGREDRLPLVPPTLEPFRRILAETKWLGGDQPNFADYSALAVFLWTASVARTPPLTEDDPLRDWLDRGFDLFDGLGRHPGMNPLFGLKLREGDPEPFVRQTGPAGAGGQALNKGPQTTKMPPRVAEKAD
For B6, which “enzyme activity of gene product” value [1] is on record?
The value was “β-etherase activity”.

B7: LigG: S. paucimobilis glutathione-eliminating glutathione S transferase gene product (protein)
chain: MSGASARSLGKGSAPPGPVPEGQIRVYSMRFCPFAQRTLMVLKAKGIRHEIININLKNKPEWFFEKNPFGLVPVLENTQGHLITESVITCEYLDEAYPEKKLFPDDPYEKACQKMTFELFSKVPSLVTSFIRAKRKEDHPGIKEELKKEFSKLEEAMANKRTAFFGGNSLSMIDYLIWPWFQRLEALELNECIDHTPKLKLWMATMQEDPVASSHFIDAKTYRDYLSLYLQDSPEACDYGL
With B7 as the molecule, how does the “enzyme activity of gene product” value [1] read?
Its value is “glutathione lyase activity”.
